Here are results for five molecules from ChEMBL document CHEMBL4184202, “New lignans attenuating cognitive deterioration of Aβ transgenic flies discovered in Acorus tatarinowii” (Bioorg Med Chem Lett, 2018).

The experiment deals with Drosophila melanogaster. The experiment is described as follows: Antialzheimer disease activity in heterozygous transgenic Alzheimer's disease model fruit fly under control of elav-Gal4'C155 (P35*H29.3) expressing Abeta42 assessed as attenuation of cognitive deterioration by measuring increase in performance index by Pavlovian olfactory test. The format is functional, organism-based.

Active and inactive are the calls of the source. The calls are words filed in the database; no cut-off is given here.

`COc1cc([C@H]2O[C@@H](c3ccc(OC)c(OC)c3)[C@H](C)[C@@H]2C)ccc1O`: the outcome was Active.

`C/C=C/c1ccc(O[C@H](C)[C@@H](O)c2cc(OC)c(OC)c(OC)c2)c(OC)c1` (relative stereo): the result was Active.

As to `C/C=C/c1cc(OC)c2c(c1)[C@@H](C)[C@H](c1ccc(OC)c(OC)c1)O2` (relative stereo), the result was Active.

In the case of `CC12CC3CC(C)(C1)CC(N)(C3)C2`, the outcome was Active.

In the case of `COc1ccc(C(=O)[C@H]2CO[C@@H](c3ccc(OC)c(OC)c3)[C@@H]2C)cc1OC` (racemic), the outcome was Active.
